Results on ten molecules are retold here after patent publication US10253004B2, “Indanylaminopyrazinylcyclopropanecarboxylic acids, pharmaceutical compositions and uses thereof” (Boehringer Ingelheim International GmbH, priority 2017, dated 2019).

One may read the IC50 as the concentration at which inhibition is half-maximal. Higher therefore signals weaker potency. The term solubility denotes how much of the substance goes into solution per volume.

Structures are written as SMILES. In brackets after ≈: the same amount, converted by molar mass. Like-named read-outs stand apart in the source and are kept apart here.

Data set [1] in a line: Chemical stability (degradation kinetics) in acidic aqueous media, HPLC recovery. Type of data set: physicochemical. Particulars: for Amount of degradation after 2 h: pH ca. 1.2, 37° C., acetonitrile/0.1 M aqueous HCl (2:3); for Chemical stability at pH ca. 1.2: degradation after 2 h at 37° C.: pH ca. 1.2, 2 h. How it is done: Degradation kinetics is used to simulate chemical stability of compounds in the acidic part of the gastro intestinal tract. […] Their application as medical drugs to treat human diseases is therefore less restricted and troublesome.
The chemical stability of the compounds of the invention at pH value of ca. 1.2 is determined as follows:
Compound is dissolved in an HPLC vial either in a mixture of acetonitrile/0.1 M aqueous HCl (2:3; pH ca. 1.2) or in a mixture of acetonitrile/Mcllvaine buffer pH 7.4 (2:3) to get a concentration of approximately 0.25 mg/ml. The vial was then transferred into an HPLC autosampler system and maintained at a temperature of 37° C. A first sample is taken and injected immediately into a standard HPLC system with a UV DAD detector. Further samples are injected after 2, 4, 6, 8 and 10 hours. Amount of degraded compound is measured by determining the recovery rate of compound [%] for each injection using an HPLC standard gradient method. Therefore the peak area of the main peak for the first injection (AUt0) is determined and set as 100%. Peak area of the main peak is determined also for the further injections (AUtn, n=2, 4, 6, 8, 10) and expressed as fraction of […] [%].

For data set [2], the target named is cytochrome P450 2C8-isoenzyme (Homo sapiens (Human), UniProt P10632). Briefly: Inhibition of CYP-2C8 (amodiaquine deethylation, human liver microsomes). Type of data set: in vitro ADME. Particulars: amodiaquine 1 μM, 37° C. Here is the method:
(§1) All assays are carried out on a robotic system in 96 well plates. The final incubation volume contains TRIS buffer (0.1 M), MgCl2 (5 mM), human liver microsomes (0.05 mg/mL), amodiaquine (1 μM) and the test compound at five different concentrations or no compound (high control) in duplicate (e.g. highest concentration 10-50 μM with subsequent serial 1:4 dilutions). Following a short preincubation period, reactions are started with the cofactor (NADPH, 1 mM) and stopped by cooling the incubation down to 8° C. and subsequently by addition of one volume of acetonitrile. An internal standard solution—the stable isotope d5-desethylamodiaquine—is added after quenching of incubations. Peak area analyte (=metabolite formed) and internal standard is determined by LC-MS/MS. The resulting peak area ratio analyte to internal standard in these incubations is compared to a control activity containing no test compound. Within each of the assay runs, the IC50 of a positive control inhibitor (Montelukast) is determined.

The next data set concerns the target human GPR40 receptor (Homo sapiens (Human), UniProt O14842). The experiment in a line: IP1 accumulation measurements using the IPOne assay system. Type of data set: cell-based. Here is the method: IP1 accumulation measurements using the IPOne assay system—1321N1 cells stably expressing human GPR40 receptor (Euroscreen, Belgium) are seeded 24 h before the assay in white 384-well plates in culture medium containing 10% FCS, 1% Na-Pyruvate and 400 μg/mL G418. IP1 is assayed according to the manufacturer's description (Cisbio Bioassays, France). In brief, the assay is started by substitution of the culture medium by stimulation buffer (Hepes 10 mM, CaCl2 1 mM, MgCl2 0.5 mM, KCl 4.2 mM, NaCl 146 mM, glucose 5.5 mM and LiCl 50 mM, pH 7.4). Cells are stimulated for 1 h at 37° C., 5% CO2 by addition of the compounds that are diluted in stimulation buffer containing LiCl. Assays are stopped by adding HTRF-conjugates (IP1-d2 and Anti-IP1 cryptate Tb) and lysis buffer, provided by the manufacturer. After an incubation time of 1 h at room temperature plates are measured using an EnVision™, Perkin Elmer. The obtained fluorescence ratios at 665/615 […] are then used to calculate the pEC50 values using Assay Explorer 3.3 Software (Accelrys, Inc.) by interpolation using an IP1 reference curve and subsequent sigmoidal curve fitting allowing for a variable hill slope.

The target in data set [3] is cytochrome P450 2C9-isoenzyme (Homo sapiens (Human), UniProt P11712). Briefly: Inhibition of CYP-2C9 (diclofenac hydroxylation, human liver microsomes). Type of data set: in vitro ADME. Particulars: diclofenac 10 μM, 37° C. How it is done: as §1, with “(0.1” for “(0.05”, “diclofenac (10” for “amodiaquine (1”, “(e.g.,” for “(e.g.”, “^13C6-hydroxydiclofenac—is” for “d5-desethylamodiaquine—is”, “(sulfaphenazole)” for “(Montelukast)”
Sequence of cytochrome P450 2C9-isoenzyme (P11712 whole entry): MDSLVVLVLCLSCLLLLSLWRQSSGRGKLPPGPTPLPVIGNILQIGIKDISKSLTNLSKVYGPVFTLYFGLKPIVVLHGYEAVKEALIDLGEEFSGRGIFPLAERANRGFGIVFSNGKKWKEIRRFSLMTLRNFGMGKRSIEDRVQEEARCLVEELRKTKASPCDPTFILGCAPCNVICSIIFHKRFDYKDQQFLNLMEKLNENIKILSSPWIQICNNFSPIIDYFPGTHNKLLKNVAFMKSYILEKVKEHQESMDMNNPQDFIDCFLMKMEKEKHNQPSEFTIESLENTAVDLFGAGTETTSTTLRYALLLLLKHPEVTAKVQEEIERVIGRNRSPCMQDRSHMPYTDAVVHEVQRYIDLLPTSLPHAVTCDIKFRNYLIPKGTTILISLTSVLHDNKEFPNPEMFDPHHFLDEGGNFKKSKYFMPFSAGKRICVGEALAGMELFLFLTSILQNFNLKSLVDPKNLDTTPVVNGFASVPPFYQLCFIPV

Data set [4] can be described thus: Aqueous solubility in buffer vs acetonitrile/water, LC-UV. The class given is physicochemical. Particulars: kinetic from dmso stock, pH 6.8 buffer, 24 h shaking, 2.5% DMSO. Here is the method: The aqueous solubility of the compounds of the invention is determined by comparing the amount dissolved in buffer to the amount in an acetonitrile/water (1/1) solution. Starting from a 10 mM DMSO stock solution aliquots are diluted with acetonitrile/water (1/1) or buffer, respectively. After 24 h of shaking, the solutions are filtrated and analyzed by LC-UV. The amount dissolved in buffer is compared to the amount in the acetonitrile solution.
Solubility is usually being measured from 0.001 to 0.125 mg/mL at a DMSO concentration of 2.5%. If more than 90% of the compound is dissolved in buffer, the value is marked with “>”.

Setting [5] is: given as IC50, own-compound values equal the EC50 of Table 2, read-out: GPR40: IC50.
The mark [6] stands for this setting: 1321N1 cells stably expressing human GPR40, IP1 accumulation, read-out: EC50.

Sequence of human GPR40 receptor (O14842 whole entry): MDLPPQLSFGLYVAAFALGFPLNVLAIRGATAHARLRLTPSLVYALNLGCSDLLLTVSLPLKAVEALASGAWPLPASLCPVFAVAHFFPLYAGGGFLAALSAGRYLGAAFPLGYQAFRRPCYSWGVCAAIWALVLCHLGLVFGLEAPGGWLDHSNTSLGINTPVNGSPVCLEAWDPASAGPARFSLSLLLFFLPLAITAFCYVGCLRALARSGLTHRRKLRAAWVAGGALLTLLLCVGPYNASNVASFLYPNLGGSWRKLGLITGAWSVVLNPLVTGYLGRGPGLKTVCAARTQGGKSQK
Sequence of cytochrome P450 2C8-isoenzyme (P10632 whole entry): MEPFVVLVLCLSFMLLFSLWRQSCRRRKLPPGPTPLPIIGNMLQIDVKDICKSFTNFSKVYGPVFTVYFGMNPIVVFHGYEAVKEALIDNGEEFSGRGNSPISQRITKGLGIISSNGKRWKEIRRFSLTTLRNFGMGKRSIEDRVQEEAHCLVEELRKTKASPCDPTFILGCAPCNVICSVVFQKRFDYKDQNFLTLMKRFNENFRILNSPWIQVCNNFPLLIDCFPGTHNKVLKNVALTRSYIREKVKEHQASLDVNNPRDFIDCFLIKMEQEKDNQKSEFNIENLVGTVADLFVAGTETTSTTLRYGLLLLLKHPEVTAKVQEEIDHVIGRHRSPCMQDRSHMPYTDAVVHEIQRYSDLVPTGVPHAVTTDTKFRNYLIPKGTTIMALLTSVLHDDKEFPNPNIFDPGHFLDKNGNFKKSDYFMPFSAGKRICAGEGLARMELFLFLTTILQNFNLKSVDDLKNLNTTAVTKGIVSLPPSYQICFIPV

Regarding `Cc1cccc(C)c1-c1ccc(F)c2c1CC[C@H]2Oc1ccc(C2CC2C(=O)O)cc1` (stereo partly shown) [Example 33 in WO 2013/178575, reference compound], the “Amount of degradation after 2 h” value in data set [1] worked out at 8%.

`Cc1cc(OCCCS(C)(=O)=O)cc(C)c1-c1ccc(F)c2c1CC[C@H]2Oc1ccc([C@H]2C[C@@H]2C(=O)O)cc1` [Example 11 in WO 2013/178575, reference compound]: in data set [2], half-maximal inhibition (IC50) was put at 12000 nM. The EC50 at human GPR40 receptor (setting [5]) was 8 nM. For the same molecule, in data set [1], the “Amount of degradation after 2 h” value was 5% and the “Chemical stability at pH ca. 1.2: degradation after 2 h at 37° C.” value (shortened to “Chemical stability”) was determined as 5%. This molecule also returned an IC50 in data set [3] of 17000 nM.

As for `Cc1cc(OCCC(C)(C)O)cc(C)c1-c1ccc(F)c2c1CC[C@H]2Nc1cnc([C@H]2C[C@@H]2C(=O)O)cn1` [Example 2, (1S,2S)-2-(5-{(R)-7-Fluoro-4-[4-(3-hydroxy-3-methyl-butoxy)-2,6-dimethyl-phenyl]-indan-1-ylamino}-pyrazin-2-yl)-cyclopropanecarboxylic acid], the IC50 in data set [2] and in data set [3] was over 50000 nM throughout. Besides, the EC50 on human GPR40 receptor (setting [6]) and at human GPR40 receptor (setting [5]) was 4 nM throughout. Further, the “Amount of degradation after 2 h” value in data set [1] was under 0.5%. Further, the “Chemical stability” value in data set [1] is recorded as under 0.5%. The solubility at 24 h in data set [4] (buffer pH 6.8, aqueous buffer) was 87 µg/mL (≈ 167 µM).

Take `Cc1cc(C(=O)NCC(C)(C)O)cc(C)c1-c1ccc(F)c2c1CC[C@H]2Oc1ccc([C@H]2C[C@@H]2C(=O)O)cc1` [Example 15 in WO 2013/178575, reference compound]: the “Amount of degradation after 2 h” value in data set [1] was found to be 3%.

Consider `Cc1cc(OCCC(C)(C)O)cc(C)c1-c1cccc2c1CC[C@H]2Nc1cnc([C@H]2C[C@@H]2C(=O)O)cn1` [Example 7, (1S,2S)-2-(5-{(R)-4-[4-(3-Hydroxy-3-methyl-butoxy)-2,6-dimethyl-phenyl]-indan-1-ylamino}-pyrazin-2-yl)-cyclopropanecarboxylic acid], for which the EC50 at human GPR40 receptor (setting [6]) stood at 4 nM. The “Amount of degradation after 2 h” value in data set [1] was under 1%.

Take `Cc1c(C#N)cccc1-c1ccc(F)c2c1CC[C@H]2Oc1ccc([C@H]2C[C@@H]2C(=O)O)cc1` [Example 54 in WO 2013/178575, reference compound]: the “Amount of degradation after 2 h” value in data set [1] amounted to 2.5%^.

Regarding `Cc1cc(OCCC(C)(C)O)cc(C)c1-c1ccc(F)c2c1CC[C@H]2Oc1ccc([C@H]2C[C@@H]2C(=O)O)cc1` [Example 17 in WO 2013/178575, reference compound], in data set [1], the “Amount of degradation after 2 h” value is 8% and the “Chemical stability” value was 8%. The solubility at 24 h in data set [4] (buffer pH 6.8, aqueous buffer) was under 1 µg/mL.

As for `Cc1cc(OCCCS(C)(=O)=O)cc(C)c1-c1ccc(F)c2c1CC[C@H]2Nc1cnc([C@H]2C[C@@H]2C(=O)O)cn1` [Example 4, (1S,2S)-2-(5-{(R)-7-Fluoro-4-[4-(3-methanesulfonyl-propoxy)-2,6-dimethyl-phenyl]-indan-1-ylamino}-pyrazin-2-yl)-cyclopropanecarboxylic acid], the IC50 in data set [2] and in data set [3] was over 50000 nM throughout. Also, the EC50 on human GPR40 receptor (setting [6]) and at human GPR40 receptor (setting [5]) was 8 nM throughout. Moreover, the “Amount of degradation after 2 h” value in data set [1] is under 0.5%. For the same molecule, the “Chemical stability” value in data set [1] is listed as under 0.5%. The molecule also displayed a solubility at 24 h in data set [4] (buffer pH 6.8, aqueous buffer) of 92 µg/mL (≈ 166 µM).

`Cc1cc(-c2nnn(C)n2)cc(C)c1-c1ccc(F)c2c1CC[C@H]2Oc1ccc([C@H]2C[C@@H]2C(=O)O)cc1` [Example 45 in WO 2013/178575, reference compound]: the solubility at 24 h in data set [4] (buffer pH 6.8, aqueous buffer) is under 1 µg/mL.

As for `Cc1cc(-c2nnn(C)n2)cc(C)c1-c1ccc(F)c2c1CC[C@H]2Nc1cnc([C@H]2C[C@@H]2C(=O)O)cn1` [Example 35], the results for the IC50 in data set [2] and in data set [3] were 21000 nM and 32000 nM, respectively. In addition, the EC50 on human GPR40 receptor (setting [5]) amounted to 2 nM. For the same molecule, the “Amount of degradation after 2 h” value in data set [1] is recorded as under 1%. In addition, the “Chemical stability” value in data set [1] was under 1%. The same molecule returned a solubility at 24 h in data set [4] (aqueous buffer) of 34 µg/mL (≈ 68.1 µM).
